# “Also recorded” adds a separate entry of the source. Like-named read-outs stand apart in the source and are kept apart here.
# Key:
# [1] = target: T1, lexA87-66 and Gal4AD-51 (p66 and p51 subunits of the HIV-1 RT) (Human immunodeficiency virus type 1 group M subtype B, UniProt P12497); type: cell-based
# T1 construct: p66 corresponds to codons 1-560 and p51 corresponds to codons 1-440 in the RT gene; expressed in transfected cells; host or cells: Saccharomyces cerevisiae CTY10-5d
# Experimental: Transformation of yeast and the qualitative β-galactosidase (β-gal) colony lift assay were as published (19). Quantification of protein-protein interactions was determined using the β-gal liquid assay performed on permeabilized yeast grown from three independent transformants using orthonitrophenyl-β-D-galactopyranoside as substrate (19).
# (§1) CTY10-5d transformed constructs expressing p66 bait and p51 prey fusions were grown overnight to stationary phase in synthetic complete medium without histidine and leucine and containing 2% glucose (SC-His-Leu). […] Yeast were grown with aeration at 30° C. to OD600=0.5. The equivalent of 1 OD600 unit was pelleted for each treatment and subjected to a quantitative _-gal liquid assay.
# To test the effects of NNRTIs on the association of the RT polypeptides we used a yeast genetic assay that measures RT heterodimerization (22). In this assay yeast expressing the p66 subunit of the HIV-1 RT fused to the C-terminus of lexa 87 (lexA87-66) and the p51 subunit fused to the Gal4AD (Gal4AD-51) constitutively interact, resulting in the activation of the expression from an integrated Lac Z reporter gene. To test for the effects of the NNRTIs on this interaction, 10 drugs representing 7 different NNRTI classes were added to the culture medium during growth of the yeast and β-gal levels were determined.
# HIV-1 RT = HIV-1 RT (Human immunodeficiency virus type 1 group M subtype B, UniProt P12497); type: biochemical; conditions: exogenous RT assay, results not shown
# [2] = target: T2, HIV-1 RT p66 bait and p51 prey fusions with the W401A change (Human immunodeficiency virus type 1 group M subtype B, UniProt P12497, W988A); type: cell-based; conditions: W401A in one or both subunits
# T2 construct: p66 corresponds to codons 1-560 and p51 corresponds to codons 1-440 in the RT gene; expressed in transfected cells; host or cells: Saccharomyces cerevisiae CTY10-5d
# Experimental: as §1
# [3] = target: T3, lexA87-66W401A and Gal4AD-HA-51W401A (Human immunodeficiency virus type 1 group M subtype B, UniProt P12497, W988A); test: Coimmunoprecipitation of p66 and p51 in yeast lysates, W401A mutant; type: cell-based, HIV-1
# T3 construct: p66 corresponds to codons 1-560 and p51 corresponds to codons 1-440 in the RT gene; expressed in transfected cells; host or cells: Saccharomyces cerevisiae CTY10-5d
# From the text: […]; Preparation of protein extracts and immunoprecipitation were as previously described (30) except for the use of anti-HA.11 monoclonal antibodies (clone 16B12; Covance, Princeton, N.J.) and Protein G-PLUS agarose beads (Santa Cruz Biotechnology; Santa Cruz, Calif.). Samples were resolved by SDS-PAGE. The lexA87-66 fusion protein was probed using monoclonal antibodies 7E5 which specifically detects p66 (31).
# To directly test for induced heterodimerization by NNRTIs we subjected lysates from yeast expressing dimerization defective mutants to coimmunoprecipitation. […]. Hemagglutinin (HA) antibodies were used to immunoprecipitate the p51 prey and the presence of any bound p66 bait was then detected using anti-p66 specific antibodies. For coimmunoprecipitation of the p66 bait fusions, samples were divided into two with one part processed without added NNRTI while the other was maintained in drug at the same concentration used during growth of yeast. […] […].
# [4] = target: lexA87-66Y181C and wild type Gal4AD-51 (Human immunodeficiency virus type 1 group M subtype B, UniProt P12497, Y768C); type: cell-based, HIV-1; conditions: yeast grown in the presence of drug
# Experimental: as §1
# [5] = tested on: moloney murine leukemia virus reverse transcriptase with elongation factor release factor 1 and other unrelated pairs; test: Y2H specificity control, unrelated protein-protein interaction pairs; type: cell-based
# From the text: (§2) The specificity of the β-gal enhancement by NNRTIs was investigated. […].
# [6] = target: p66W401A-His and GST-p51W401A (Human immunodeficiency virus type 1 group M subtype B, UniProt P12497, W988A); test: In vitro heterodimerization in bacterial lysates, W401A mutant
# Experimental: The heterodimerization of bacterially expressed wild-type p66-His and GST-p51 (or mutants) was assessed in bacterial lysates as described previously (22). […] Lysates were washed 4 times with lysis buffer using a centricon-YM-50 filter device (Millipore Corporation, Bedford, Mass.) to remove unbound drug. 5 μg of the corresponding RT subunit was applied to the washed lysates (in 500 μl) and incubated for 1.5 hr at 40C. Heterodimers were captured onto beads (22), resolved by SDS/PAGE and detected using RT antibodies (monoclonal antibody 5B2) (31).
# lexA87 and Gal4AD = test: Y2H specificity control, empty vectors pSH21 and pGADNOT; type: cell-based; conditions: serial dilutions, even in the presence of 15 μM of drug
# From the text: as §2
# RT heterodimer = target: T4, RT heterodimer (Human immunodeficiency virus type 1 group M subtype B, UniProt P12497); conditions: cited from earlier work
# T4 construct: The HIV-1 RT is an asymmetric dimer consisting of p66 and p51 polypeptides
# p66/p51 heterodimer = target: T5, p66/p51 heterodimer (Human immunodeficiency virus type 1 group M subtype B, UniProt P12497); conditions: cited from earlier work
# T5 construct: The HIV-1 RT is an asymmetric dimer consisting of p66 and p51 polypeptides
# HIV-1 = conditions: cited from earlier work
# [7] = target: T6, lexA87-66L234A and Gal4AD-HA-51L234A (Human immunodeficiency virus type 1 group M subtype B, UniProt P04585, L821A); type: cell-based, HIV-1; conditions: yeast grown with efavirenz 1.6 μM or UC781 16 μM, compared to no drug
# T6 construct: p66 corresponds to codons 1-560 and p51 corresponds to codons 1-440 in the RT gene; expressed in transfected cells; host or cells: Saccharomyces cerevisiae CTY10-5d
# From the text: Samples were resolved by SDS-PAGE.
# Hemagglutinin (HA) antibodies were used to immunoprecipitate the p51 prey and the presence of any bound p66 bait was then detected using anti-p66 specific antibodies. For coimmunoprecipitation of the p66 bait fusions, samples were divided into two with one part processed without added NNRTI while the other was maintained in drug at the same concentration used during growth of yeast.
# [8] = target: T7, HIV-1 RT p66 bait and p51 prey fusions with the L234A change (Human immunodeficiency virus type 1 group M subtype B, UniProt P04585, L821A); type: cell-based; conditions: L234A in one or both subunits
# T7 construct: p66 corresponds to codons 1-560 and p51 corresponds to codons 1-440 in the RT gene; expressed in transfected cells; host or cells: Saccharomyces cerevisiae CTY10-5d
# Experimental: as §1
# p66-His and GST-p51 = target: T8, p66-His and GST-p51 (Human immunodeficiency virus type 1 group M subtype B, UniProt P04585); type: binding, HIV-1
# T8 construct: p66 corresponds to codons 1-560 and p51 corresponds to codons 1-440 in the RT gene; made in house; host or cells: E. coli M15 (p66-His) and BL21 (GST-p51), unpurified lysates
# Experimental: Plasmids expressing wild-type and p66 mutants with a histidine tag at the C-terminus (p66-His) were constructed by cloning the p66 coding region into the SphI -BglII site of pQE-70 (Qiagen, Chatsworth, Calif.). […] Glutathione S-transferase tagged p51 (GST-p51) was prepared by subcloning the BamHI-SalI fragment from p51HXGADNOT into pGEX5X-3 (Amersham Pharmacia). Cells were induced and then lysed by the addition of 1 mg/ml of lysozyme to 1 ml of lysis buffer [50 mM sodium phosphate buffer (pH 7.8), 500 mM NaCl, 0.5% Nonidet P-40, 5 mM DTT, and 1 μg/ml each of pepstatin A, aprotinin and leupeptin] and clarified. Lysates were combined and incubated for 16 hrs at 4° C. The heterodimer was captured on Glutathione Sepharose 4B beads and unbound subunits were removed by washing with lysis buffer. Heterodimer bound to beads were resolved by SDS/PAGE. For quantification of RT activity, dimers were eluted from beads with 10 mM reduced glutathione in 50 mM Tris (pH 8.0). Samples were assayed for DNA polymerase activity on homopolymeric template-primers for various times, and the activity was determined from the initial slope of the linear phase of the time course.
# [9] = target: HIV-1 RT with Y181C mutation in the p66 subunit (Human immunodeficiency virus type 1 group M subtype B, UniProt P12497, Y768C); conditions: cited from earlier work
# [10] = yeast expressing lexA87-66 and Gal4AD-51 grown with drug
# [11] = bacterial lysates, overnight at 4° C.
molecule,measurement,setting,value
CC(C)OC(=O)c1cc(NC(=S)OC(C)C)ccc1Cl [UC38],"concentration of drug that mediates a 5-fold increase in β-gal activity, rank","[1]; Y2H assay, results not shown",least active
same,"RT inhibitory activity (50% inhibitory concentration), rank",HIV-1 RT,least active
"O=C1Nc2ccc(Cl)cc2[C@@](C#CC2CC2)(C(F)(F)F)O1 [efavirenz, (S)6-chloro-4(cyclopropylethynyl)-1,4-dihydro-4-(trifluoromethyl)-2H-3,1-benzoxazin-2-one]","enhancement of β-gal activity, W401A mutant, in words",[2],dramatic increase in β-gal activity
same,"heterodimer in lysates of yeast grown without drug, drug added during coimmunoprecipitation, W401A",[3],significantly more heterodimer present
same,"p66 bait coimmunoprecipitated with p51 prey, W401A",[3],clear increase
same,β-gal enhancement with Y181C in the p66 bait,[4],significant level of β-gal enhancement was still retained
same,effect on β-gal activity of unrelated protein-protein interaction pairs,[5],no enhancement or inhibition of β-gal activity
same,"molar excess of drug giving a significant increase in dimer formation, W401A",[6],10 fold molar excess
same,"increase in β-gal activity, empty vectors",lexA87 and Gal4AD,no increase in β-gal activity
same,binding to the RT heterodimer,RT heterodimer,bind very tightly
CCn1c(=O)c(C)cn([C@@H]2O[C@H](CO[Si](C)(C)C(C)(C)C)C3(OS(=O)(=O)C=C3N)[C@H]2O[Si](C)(C)C(C)(C)C)c1=O (stereo partly drawn) [TSAOe^3T],destabilization of the p66/p51 heterodimer,p66/p51 heterodimer,more modest destabilization only detectable in the presence of denaturants
"COc1ccc2c(c1)N(C(=O)OC(C)C)[C@@H](CSC)C(=S)N2 [HBY 097, (S)-4-isopropoxycarbonyl-6-methoxy-3-(methylthiomethyl)-3,4-dihydroquinoxaline-2(1H)-thione]","enhancement of β-gal activity, in words / relative potency",[1]; [10],most potent
same,inhibition of HIV-1 replication in vitro,HIV-1,extremely potent inhibitors
"CC(C)=CCOc1cc(NC(=S)c2ccoc2C)ccc1Cl [UC781, N-[4-chloro-3-(3-methyl-2-butenyloxy)phenyl]-2-methyl-3-furancarbothioamide]","p66 bait coimmunoprecipitated with p51 prey, L234A",[7],not for the L234A mutant
same,"enhancement of β-gal activity, L234A mutant, in words",[8],no enhancement
same,"enhancement of β-gal activity, W401A mutant, in words",[2],could also enhance the β-gal activity
same,"enhancement of dimerization of GST-p51 and p66-His in vitro, in words",p66-His and GST-p51; [11],poor dimerization inducers
same,"p66 bait coimmunoprecipitated with p51 prey, W401A","[3]; yeast grown with efavirenz 1.6 μM or UC781 16 μM, compared to no drug",heterodimer formation
same,"enhancement of β-gal activity, in words / relative potency",[1]; [10],second most potent drug
same,binding to the RT heterodimer,RT heterodimer,bind very tightly
same,dissociation rates (Koff),RT heterodimer,very slow dissociation rates
same,inhibition of HIV-1 replication in vitro,HIV-1,extremely potent inhibitors
"Cc1ccnc2c1NC(=O)c1cccnc1N2C1CC1 [nevirapine, 11-cyclopropyl-5,11,-dihydro-4-methyl-6H-dipyrido[3,2-b:2′3′-][1,4] diazepin-6-one]",increase in resistance conferred by Y181C,[9],> 100 fold
same,β-gal enhancement with Y181C in the p66 bait,[4],totally negated the enhancement effect
"2′,5′-bis-O-(tert-butylidimethylsilyl) -3′-spiro-5″-4″-amino-1″,2″-oxothiole-2″,2″-dioxide)]-b-D- pentofuranosyl [TSAO]",effect on heterodimerization in in vitro binding assays,"p66-His and GST-p51; preliminary tests, data not shown",reduce heterodimerization
same,inhibition of β-gal activity in the Y2H system,"[1]; preliminary tests, data not shown, uptake by yeast not ruled in",no inhibition of β-gal activity
same,destabilization of the p66/p51 heterodimer,p66/p51 heterodimer,destabilization of the p66/p51 heterodimer; also recorded: destabilize the p66/p51 heterodimer
"CC(C)Nc1cccnc1N1CCN(C(=O)c2cc3cc(NS(C)(=O)=O)ccc3[nH]2)CC1 [delavirdine, piperazine, 1-[3-[(1-methyl-ethyl)amino]-2-pyridinyl]-4-[[5-[(methysulfonyl)amino]-1H-indol-2-yl]carbonyl]-, monomethanesulfonate]","enhancement of dimerization of GST-p51 and p66-His in vitro, in words",p66-His and GST-p51,inactive in vitro
same,"enhancement of β-gal activity, in words / relative potency",[1],devoid of P-gal enhancing activity
Cc1occc1C(=S)Nc1ccc(Cl)c(/C=N/OC(C)(C)C)c1 [UC10],"enhancement of dimerization of GST-p51 and p66-His in vitro, in words",p66-His and GST-p51; [11],poor dimerization inducers
